Laboratory results published in publication PMC6593224, “Validation and Invalidation of Chemical Probes for the Human N-myristoyltransferases” (Cell Chemical Biology, 2019).
pIC50, pKd: −log10 of the molar value. Entries after “also recorded” stand apart in the source; their conditions may differ. Read-outs that look alike come from different tables or passages of the source.

Experiments:
[1] = system: human NMT1; conditions: cited from earlier work
[2] = system: NMT within living cells (N-myristoylation); test: YnMyr metabolic tagging, in-gel fluorescence; conditions: for N-myristoylation in cells (summary of assays): 1 μM IMP-366, 100 nM IMP-1088, 100 μM 2-hydroxymyristic acid, 30 μM D-NMAPPD, 10 μM Tris-DBA palladium, 18 h; for quantification of YnMyr tagging of ten bands: MDA-MB-231 and HeLa, 100 μM 3, 30 μM 4, 10 μM 5
[3] = system: MDA-MB-231 and HeLa cells; test: Bright-field microscopy; format: cell-based, human; conditions: both cell lines; 18 h; 30 μM 4, 10 μM 5
[4] = system: HeLa cells; test: Cell-cycle distribution by FACS (DNA content, EdU); conditions: 18 h, 30 μM 4, 10 μM 5
[5] = system: human NMTs; conditions: read-out: In Vitro IC50, Reported, cited from earlier work
[6] = biological target: T1, recombinant human N-myristoyltransferase 1 (rNMT1) (Homo sapiens, UniProt P30419); test: Enzymatic HsNMT1 assay (CPM detection of CoA thiol by-product); format: biochemical; conditions: for rNMT1 activity: below 300 μM
T1 construct: Full-length HsNMT1 enzyme was produced as previously described; made in house
T1 sequence (P30419 1-496): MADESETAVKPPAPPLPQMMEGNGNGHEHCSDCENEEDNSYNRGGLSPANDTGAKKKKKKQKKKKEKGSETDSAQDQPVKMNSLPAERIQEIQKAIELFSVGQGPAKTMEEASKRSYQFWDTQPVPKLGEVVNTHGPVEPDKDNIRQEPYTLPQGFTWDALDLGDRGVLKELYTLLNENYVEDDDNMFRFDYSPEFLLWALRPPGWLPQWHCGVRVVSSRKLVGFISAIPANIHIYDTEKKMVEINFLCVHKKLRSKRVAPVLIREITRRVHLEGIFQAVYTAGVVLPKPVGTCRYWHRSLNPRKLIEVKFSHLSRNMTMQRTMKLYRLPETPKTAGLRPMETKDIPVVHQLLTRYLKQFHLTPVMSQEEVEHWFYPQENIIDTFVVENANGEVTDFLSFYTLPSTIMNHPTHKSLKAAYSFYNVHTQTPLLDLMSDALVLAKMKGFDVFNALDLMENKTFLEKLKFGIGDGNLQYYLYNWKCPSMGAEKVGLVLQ
Description: After background correction, IC50 values were determined by fitting the four-parametric variable slope function (GraphPad Prism 5.0), with the stated IC50 values being the mean of two independent assays performed in triplicate.

[7] = system: NMT (in-cell target engagement, ARL1); test: Sortase A assay (peptide addition to ARL1), human cell lines
Description: (§1) The homogenate was further disrupted by shearing it three times through a 30G needle. […] Hereafter the reaction was quenched with 5 mM EDTA and stored at −20°C until further analysis.

[8] = system: NMT2; conditions: ref Rampoldi et al., 2012; cited from earlier work
[9] = system: Jurkat cells; test: Metabolic activity (Cell Titer Blue); conditions: Jurkat (suspension); 10 μM 5 for 72 h
[10] = system: MDA-MB-231 cells; test: Nuclei counting as a measure for proliferation; format: cell-based, human
Description: After 24, 48 or 72 h of exposure, cell viability was evaluated by determination of metabolic activity and counting of cellular nuclei. Metabolic activity was assessed by addition of Cell Titer Blue (Promega), incubation at 37°C and the appropriate percentage of CO2 for 3 h, followed by measuring the absorbance at 490 nm using a PHERAstar (BMG LabTech, Germany). For nuclei counting, cells were fixed with 4% (w/v) paraformaldehyde at room temperature (RT) for 20 min, permeabilised with 0.2% (v/v) Triton X-100 in PBS at RT for 20 min, DNA stained with 1 μg/mL DAPI (Life Technologies, D1306) at RT for 1 h, followed by three washes with PBS. Whole well images for the total number of cells were acquired with an Acumen Cellista (TTP Labtech), using the 405 nm excitation / FL1 (420-500 nm) emission channel. The cell viability was normalised to the negative control (DMSO) and positive control (Staurosporin and puromycin), followed by fitting the four-parametric variable slope function (GraphPad Prism 5.0) to data of quadruplicate experiments.

[11] = Precipitation in growth media
[12] = system: A375 melanoma; parameters: method as in Bhandarkar et al., 2008; conditions: 11 μM 5, ref Bhandarkar et al., 2008; cited from earlier work
[13] = system: de novo protein synthesis; test: L-AHA tagging of de novo protein synthesis; format: cell-based, human; conditions: MDA-MB-231 and HeLa; 18 h; 30 μM 4, 10 μM 5
Source text: Cells were subsequently harvested as described before (see Myristic Acid Analogue (YnMyr) Tagging Experiments).

[14] = system: HeLa cells; test: Apoptosis, active caspase-3 staining by FACS; conditions: 18 h, 30 μM 4, 10 μM 5
[15] = Precipitation in rNMT1 buffer, absorbance at 750 nm; format: physicochemical; conditions: 15 min at room temperature
Description: Absorbance at 750 nm was determined after 15 min at room temperature.
and 72 h. Mean of quadruplicate measurements, ± SEM.
(E) Nuclei counts of HeLa cells after exposure to 1-5 for 24, 48 and 72 h. Mean of quadruplicate

[16] = system: N-myristoylated proteome (NMT substrates); test: Quantitative chemical proteomics of YnMyr-tagged proteins; format: cell-based, human; conditions: MDA-MB-231 (n = 75)
Source text: HeLa and MDA-MB-231 cells were exposed (in triplicate) to 1–5, in a setup identical to that used for in-gel analyses (Figure 2A), with the exception that YnMyr-tagged proteins were ligated to AzRB. Labeled proteins were enriched on NeutrAvidin-agarose and digested on-resin with trypsin; peptides were labeled with tandem mass tag, and analyzed and quantified by nano-liquid chromatography-tandem mass spectrometry on a Thermo Q-Exactive instrument.
Cysteine carbamidomethylation was used as a fixed modification and methionine oxidation and N-terminal acetylation as variable modifications. ‘Trypsin/P’ was chosen as digestion mode enzyme, and up to two missed cleavages were allowed. The ‘match between run’ option was selected, along with ‘unique and razor peptides’ for protein quantification. TMT was set per sample group. […] The false discovery rate was set to 0.01 for peptides and a minimum of 2 unique peptides per protein were required. The mass spectrometry proteomics data have been deposited to the ProteomeXchange Consortium via the PRIDE partner repository with the dataset identifier PXD012722.

[17] = system: lysosomal acid ceramidase; parameters: method as in Raisova et al., 2002; conditions: various cancer cell lines, >5 μM 4; ref Raisova et al., 2002; cited from earlier work
[18] = system: NMT (in-cell target engagement, ARL1); test: Sortase A assay (peptide addition to ARL1), murine cells; format: cell-based; conditions: MEF and NIH3T3 cells; 100, 10 and 1 μM 4
Description: as §1

[19] = system: N-myristoylation in living cells; conditions: cited from earlier work
[20] = biological target: both NMTs; parameters: method as in Mousnier et al., 2018; conditions: ref Mousnier et al., 2018; cited from earlier work
[21] = recombinant human NMT1, mean of two independent assays in triplicate, values for 3 and 4 extrapolated, read-out: In Vitro IC50, This Article
[22] = range of concentrations, 24, 48, 72 h

| SMILES | N-myristoylation in cells (summary of assays) [2] | quantification of YnMyr tagging of ten bands [2] | cell morphology [3] | depletion of S phase compared with MDA-MB-231 [4] | pIC50 [6, 21] | decrease in L-AHA labeling [13] | induction of apoptosis compared with MDA-MB-231 [14] | concentration at which the compound precipitated (absorbance at 750 nm) [15] | hierarchical one-minus Pearson correlation clustering of enrichment of N-myristoylated proteins [16] | rNMT1 activity [6] | effect on proliferation (nuclei counts) [10, 22] | further results |
| --- | --- | --- | --- | --- | --- | --- | --- | --- | --- | --- | --- | --- |
| O=C(/C=C/c1ccccc1)/C=C/c1ccccc1.O=C(/C=C/c1ccccc1)/C=C/c1ccccc1.O=C(/C=C/c1ccccc1)/C=C/c1ccccc1.[Pd].[Pd] [Compound 5, Tris (dibenzylideneacetone) di-palladium] | unaffected; also recorded: does not inhibit NMT in cells | at most a minor reduction | exhibited this phenotype | correspondingly lower depletion of S phase | 5.38 | 40%–80% | less induction of apoptosis | 10 µM | do not affect NMT activity | – | – | NMT1 inhibition (claimed selectivity NMT1 vs NMT2) ([1]; ref Rampoldi et al., 2012): 0.5 µM; pIC50 ([5]; ref Bhandarkar et al., 2008): 5.89 to 6.30; NMT inhibition (sortase A) and cytotoxicity ([7]; A375, NCI-H929 and PANC1 cells, 10, 1 and 0.1 μM 5): cytotoxic in the absence NMT inhibition; NMT2 inhibition (claimed selectivity NMT1 vs NMT2) [8]: 1.3 µM; effect on metabolic activity [9]: no effect; pIC50 ([10]; time- and concentration-dependent, 24, 48, 72 h, read-out: IC50 of proliferation (nuclei counts)): ~6.52; precipitation in the media ([11]; cell culture media, black rod-shaped crystals): precipitated in the media; concentrations at which precipitation in growth media was most notable ([11]; growth media of multiple cell lines): over 1 μM; decrease in cell count [12]: 96% |
| CCCCCCCCCCCCCC(=O)N[C@H](CO)[C@H](O)c1ccc([N+](=O)[O-])cc1 [Compound 4, D-NMAPPD] | unaffected | at most a minor reduction | more rounded apoptotic cells | correspondingly lower depletion of S phase | < 3.52 | 40%–80% | less induction of apoptosis | 300 µM | do not affect NMT activity | not reduced | – | pIC50 ([1]; ref Kim et al., 2017, read-out: biochemical human NMT1 IC50): 4.11; increase of ceramide concentrations [17]: up to 12 fold; NMT inhibition (sortase A) ([7]; PC-3 cells, 100, 10 and 1 μM 4): no effect; effect on proliferation (nuclei counts) ([10]; 30 μM 4, 24, 48, 72 h): hindered proliferation equally at all time points; NMT inhibition (sortase A) [18]: no effect; pIC50 ([19]; ref Kim et al., 2017, read-out: IC50, capacity to reduce N-myristoylation in living cells): ~4.82 |
| Cc1nn(C)c(C)c1CCOc1c(-c2ccc3c(c2)c(CN(C)C)nn3C)ccc(F)c1F [Compound 2, IMP-1088] | complete inhibition | – | – | – | – | – | – | above 300 μM | very similar to that of control cells not treated with YnMyr | – | only after 48 and 72 h | N-myristoylation in cells (summary of assays) ([2]; listed as IMP-1088): complete and specific inhibition; concentration for complete inhibition of in-cell N-myristoylation above the IC50 toward recombinant NMT1 ([2]; approximately): 30- to 100 fold; pIC50 ([5]; ref Mousnier et al., 2018): > 9.00; pKd [20]: ~9.70; pIC50 [6]: 9.62; NMT engagement (sortase A) ([7]; all cell lines tested (panel of nine, incl. murine MEF and NIH3T3)): engaged NMT; N-myristoylation in cells ([19]; low nanomolar concentrations, ref Mousnier et al., 2018): completely inhibited |
| CCCCCCCCCCCCC(O)C(=O)O (centres unmarked) [Compound 3, 2-hydroxymyristic acid] | did not inhibit | at most a minor reduction | – | – | < 3.52 | – | – | 300 µM | do not affect NMT activity | not reduced | unaffected | N-myristoylation in cells (summary of assays) ([2]; listed as 2-Hydroxymyristate): inactive; N-myristoylation in cells (summary of assays) ([2]; listed as 2-hydroxymyristic acid): unaffected; pIC50 ([5]; ref Paige et al., 1990): 4.00; inhibition of recombinant NMT1 ([6]; 100 μM 3, while soluble): did not inhibit; NMT inhibition (sortase A) ([7]; Jurkat, HEK293 and NCI-H23 cells, 100, 10 and 1 μM 3): did not inhibit NMT; effect of addition to medium ([11]; 3 at 1 mM, directly or in a mixture with BSA, data not shown): precipitation in the medium and cell death; metabolic labeling of cells with [3H]myristate ([19]; 100 μM to 1 mM, ref Vaandrager et al., 1996, Tan et al., 2016): reduce metabolic labeling |
